{"source": "patent US10294202B2", "about": "“Pyrrolidinones as herbicides” (FMC Corporation, priority 2013, dated 2019)", "key": {"pigweed": {"system": "pigweed", "assay": "Test A pre-/postemergence herbicide test", "assay_type": "in vivo, Amaranthus retroflexus", "conditions": "for Plant response rating, Pigweed: 0 to 100 scale", "outline": "(§1)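 Scoring was visual, relative to untreated controls, on a 0–100 scale after about 10 greenhouse days. Preemergence treatment used a directed soil spray over seeded loam/sand; postemergence treatment targeted one- to two-leaf plants of 2–10 cm.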"}, "wheat": {"system": "wheat", "assay": "Test A pre-/postemergence herbicide test", "assay_type": "in vivo, Triticum aestivum", "conditions": "Postemergence", "outline": "as §1"}, "blackgrass": {"system": "blackgrass", "assay": "Test C pre-/postemergence herbicide test", "assay_type": "in vivo, Alopecurus myosuroides", "conditions": "Preemergence", "outline": "(§2)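 Response scores range from 0, meaning no effect, to 100, meaning complete control, assigned visually by comparison with controls roughly two weeks (13 to 15 days) after spraying. Applications were made preemergence to seeded loam–sand soil and postemergence to 1- to 4-leaf plants.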"}, "ryegrass, Italian": {"system": "ryegrass, Italian", "assay": "Test C pre-/postemergence herbicide test", "assay_type": "in vivo, Lolium multiflorum", "conditions": "Preemergence", "outline": "as §2"}, "galium": {"system": "galium", "assay": "Test C pre-/postemergence herbicide test", "assay_type": "in vivo, Galium aparine", "conditions": "Preemergence", "outline": "as §2"}, "corn": {"system": "corn", "assay": "Test C pre-/postemergence herbicide test", "assay_type": "in vivo, Zea mays", "conditions": "Preemergence", "outline": "as §2"}, "morningglory": {"system": "morningglory", "assay": "Test C pre-/postemergence herbicide test", "assay_type": "in vivo, Ipomoea coccinea", "conditions": "Preemergence", "outline": "as §2"}, "nutsedge, yellow": {"system": "nutsedge, yellow", "assay": "Test C pre-/postemergence herbicide test", "assay_type": "in vivo, Cyperus esculentus", "conditions": "Preemergence", "outline": "as §2"}, "barnyardgrass": {"system": "barnyardgrass", "assay": "Test C pre-/postemergence herbicide test", "assay_type": "in vivo, Echinochloa crus-galli", "conditions": "Preemergence", "outline": "as §2"}, "velvetleaf": {"system": "velvetleaf", "assay": "Test C pre-/postemergence herbicide test", "assay_type": "in vivo, Abutilon theophrasti", "conditions": "Preemergence", "outline": "as §2"}, "[1]": {"conditions": "31 g ai/ha, scale 0 to 100, 0 is no effect and 100 is complete control"}, "[2]": {"conditions": "125 g ai/ha, scale 0 to 100 (0 no effect, 100 complete control)"}, "[3]": {"conditions": "62 g ai/ha, scale 0 to 100 (0 no effect, 100 complete control)"}}}
{"smiles": "O=C1NCC(c2ccc(Cl)cc2)C1C(=O)Nc1cccc(F)c1F", "note": "(centres unmarked) [Compound 218]", "values": [{"measurement": "Plant response rating, Pigweed", "setting": "pigweed; 125 g ai/ha, visual rating, 0 no effect, 100 complete control, approximately 10 days, preemergence", "value": 30}, {"measurement": "Plant response rating, Pigweed", "setting": "pigweed; Postemergence, 125 g ai/ha, 0 is no effect, 100 is complete control", "value": 0}, {"measurement": "Pigweed plant response rating (0 to 100 scale, 0 is no effect, 100 is complete control)", "setting": "pigweed; Postemergence, 500 g ai/ha", "value": 40}, {"measurement": "Plant response rating, Pigweed", "setting": "pigweed; preemergence, 500 g ai/ha, 0 is no effect and 100 is complete control", "value": 70}, {"measurement": "Plant response rating, Wheat", "setting": "wheat; 125 g ai/ha, 0 to 100 scale, 0 is no effect, 100 is complete control", "value": 20}, {"measurement": "Wheat plant response rating (0 to 100 scale, 0 is no effect, 100 is complete control)", "setting": "wheat; 500 g ai/ha", "value": 50}, {"measurement": "Blackgrass plant response rating", "setting": "blackgrass; [1]", "value": 0}, {"measurement": "Plant response rating, Blackgrass", "setting": "blackgrass; 62 g ai/ha, scale 0 to 100", "value": 10}, {"measurement": "Plant response rating, Blackgrass", "setting": "blackgrass; [2]", "value": 50}, {"measurement": "Plant response rating (scale of 0 to 100), Blackgrass", "setting": "blackgrass; 250 g ai/ha", "value": 80}, {"measurement": "Ryegrass, Italian plant response rating", "setting": "ryegrass, Italian; [1]", "value": 0}, {"measurement": "Ryegrass, Italian plant response rating", "setting": "ryegrass, Italian; [3]", "value": 0}, {"measurement": "Plant response rating, Ryegrass, Italian", "setting": "ryegrass, Italian; [2]", "value": 0}, {"measurement": "Plant response rating (scale of 0 to 100), Ryegrass, Italian", "setting": "ryegrass, Italian; 250 g ai/ha", "value": 50}, {"measurement": "Galium plant response rating", "setting": "galium; [1]", "value": 0}, {"measurement": "Galium plant response rating", "setting": "galium; [3]", "value": 0}, {"measurement": "Plant response rating, Galium", "setting": "galium; [2]", "value": 85}, {"measurement": "Plant response rating (scale of 0 to 100), Galium", "setting": "galium; 250 g ai/ha", "value": 90}, {"measurement": "Corn plant response rating", "setting": "corn; [1]", "value": 0}, {"measurement": "Corn plant response rating", "setting": "corn; [3]", "value": 0}, {"measurement": "Plant response rating, Corn", "setting": "corn; [2]", "value": 0}, {"measurement": "Plant response rating (scale of 0 to 100), Corn", "setting": "corn; 250 g ai/ha", "value": 0}, {"measurement": "Morningglory plant response rating", "setting": "morningglory; [1]", "value": 0}, {"measurement": "Morningglory plant response rating", "setting": "morningglory; [3]", "value": 0}, {"measurement": "Plant response rating, Morningglory", "setting": "morningglory; [2]", "value": 25}, {"measurement": "Plant response rating (scale of 0 to 100), Morningglory", "setting": "morningglory; 250 g ai/ha", "value": 20}, {"measurement": "Nutsedge, Yellow plant response rating", "setting": "nutsedge, yellow; [1]", "value": 0}, {"measurement": "Nutsedge, Yellow plant response rating", "setting": "nutsedge, yellow; [3]", "value": 0}, {"measurement": "Plant response rating, Nutsedge, Yellow", "setting": "nutsedge, yellow; [2]", "value": 0}, {"measurement": "Plant response rating (scale of 0 to 100), Nutsedge, Yellow", "setting": "nutsedge, yellow; 250 g ai/ha", "value": 0}, {"measurement": "Barnyardgrass plant response rating", "setting": "barnyardgrass; [1]", "value": 80}, {"measurement": "Plant response rating, Barnyardgrass", "setting": "barnyardgrass; 62 g ai/ha, scale 0 to 100", "value": 90}, {"measurement": "Plant response rating, Barnyardgrass", "setting": "barnyardgrass; [2]", "value": 95}, {"measurement": "Plant response rating (scale of 0 to 100; 0 is no effect, 100 is complete control), Barnyardgrass", "setting": "barnyardgrass; 250 g ai/ha", "value": 95}, {"measurement": "Velvetleaf plant response rating", "setting": "velvetleaf; [1]", "value": 0}, {"measurement": "Velvetleaf plant response rating", "setting": "velvetleaf; [3]", "value": 0}, {"measurement": "Plant response rating, Velvetleaf", "setting": "velvetleaf; [2]", "value": 15}, {"measurement": "Plant response rating (scale of 0 to 100), Velvetleaf", "setting": "velvetleaf; 250 g ai/ha", "value": 40}]}
